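All cell lines were grown in 96-well plates and treated with compound for 48 hours. Abbreviation: GI50, concentration required for 50% inhibition of growth. At the TGI there is no net growth.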
What was measured:
Experiment in all cases: NCI-60 cell line screen, 48 h
[1] = tested on: SF-268 CNS
[2] = tested on: ACHN renal
[3] = tested on: SK-MEL-2 melanoma
[4] = tested on: PC-3 prostate
[5] = tested on: NCI-H23 lung
[6] = tested on: UACC-257 melanoma
[7] = tested on: SF-539 CNS
[8] = tested on: HL-60(TB) leukemia
[9] = tested on: MDA-N
[10] = tested on: NCI/ADR-RES ovarian
[11] = tested on: OVCAR-5 ovarian
[12] = tested on: HCT-116 colon
[13] = tested on: A498 renal
[14] = tested on: SR leukemia
[15] = tested on: SN12C renal
[16] = tested on: SNB-19 CNS
[17] = tested on: SNB-75 CNS
[18] = tested on: RPMI-8226 leukemia
[19] = tested on: HCT-15 colon
[20] = tested on: K-562 leukemia
[21] = tested on: SK-OV-3 ovarian
[22] = tested on: U251 CNS
[23] = tested on: RXF 393 renal
[24] = tested on: HCC-2998 colon
[25] = tested on: UO-31 renal
[26] = tested on: 786-0 renal
[27] = tested on: HT29 colon
[28] = tested on: COLO 205 colon
[29] = tested on: MOLT-4 leukemia
[30] = tested on: LOX IMVI melanoma
[31] = tested on: SK-MEL-28 melanoma
[32] = tested on: CCRF-CEM leukemia
[33] = tested on: OVCAR-4 ovarian
[34] = tested on: OVCAR-8 ovarian
[35] = tested on: HS 578T breast
[36] = tested on: A549 NSCLC
[37] = tested on: SK-MEL-5 melanoma
[38] = tested on: M14 melanoma
[39] = tested on: T-47D breast
[40] = tested on: KM12 colon
[41] = tested on: TK-10 renal
[42] = tested on: MDA-MB-231 breast
[43] = tested on: UACC-62 melanoma
[44] = tested on: SF-295 CNS
[45] = tested on: CAKI-1 renal
[46] = tested on: IGROV1 ovarian
[47] = tested on: NCI-H522 lung
[48] = tested on: MCF7 breast
[49] = tested on: SW-620 colon
[50] = tested on: MALME-3M melanoma
[51] = tested on: HOP-62 NSCLC
[52] = tested on: EKVX NSCLC
[53] = tested on: OVCAR-3 ovarian
[54] = tested on: MDA-MB-435
[55] = tested on: DU-145 prostate
[56] = tested on: NCI-H460 lung
[57] = tested on: HOP-92 NSCLC
[58] = tested on: BT-549 breast
[59] = tested on: NCI-H226 lung

`CCOC(=O)C(O)(NC(=O)NC(O)(C(=O)OCC)C(F)(F)F)C(F)(F)F` (configuration not stated) gave a TGI [1] greater than 100 µM, a TGI [2] greater than 100 µM and a TGI [3] greater than 100 µM. For the same molecule, the TGI [4] was greater than 100 µM, the TGI [5] was greater than 100 µM and the TGI [6] was greater than 100 µM. It also gave a TGI [7] greater than 100 µM, a TGI [8] greater than 100 µM and a TGI [9] greater than 100 µM. For the same molecule, the TGI [10] was greater than 100 µM, the TGI [11] was greater than 100 µM and the TGI [12] was greater than 100 µM. The TGI [13] was greater than 100 µM, the TGI [14] was greater than 100 µM and the TGI [15] was greater than 100 µM. It also gave a TGI [16] greater than 100 µM, a TGI [17] greater than 100 µM and a TGI [18] greater than 100 µM. The TGI [19] was greater than 100 µM, the TGI [20] was greater than 100 µM and the TGI [21] was greater than 100 µM. It also gave a TGI [22] greater than 100 µM, a TGI [23] greater than 100 µM and a TGI [24] greater than 100 µM. For the same molecule, the TGI [25] was greater than 100 µM, the TGI [26] was greater than 100 µM and the TGI [27] was greater than 100 µM. It also gave a TGI [28] greater than 100 µM, a TGI [29] greater than 100 µM and a TGI [30] greater than 100 µM. It also gave a TGI [31] greater than 100 µM and a TGI [32] greater than 100 µM.

`c1ccc(C2=NCCc3cc4c(cc32)OCO4)cc1` was tested, and the TGI [33] was greater than 100 µM, the TGI [1] was greater than 100 µM and the TGI [34] was greater than 100 µM. It also gave a TGI [3] greater than 100 µM, a TGI [4] greater than 100 µM and a TGI [35] greater than 100 µM. For the same molecule, the TGI [36] was greater than 100 µM, the TGI [5] was greater than 100 µM and the TGI [6] was greater than 100 µM. It also gave a TGI [7] greater than 100 µM, a TGI [37] greater than 100 µM and a TGI [38] greater than 100 µM. The TGI [39] was greater than 100 µM, the TGI [40] was greater than 100 µM and the TGI [41] was greater than 100 µM. The TGI [9] was greater than 100 µM, the TGI [10] was greater than 100 µM and the TGI [11] was greater than 100 µM. It also gave a TGI [42] greater than 100 µM, a TGI [13] greater than 100 µM and a TGI [14] greater than 100 µM. For the same molecule, the TGI [15] was greater than 100 µM, the TGI [16] was greater than 100 µM and the TGI [43] was greater than 100 µM. It also gave a TGI [44] greater than 100 µM, a TGI [45] greater than 100 µM and a TGI [46] greater than 100 µM. For the same molecule, the TGI [47] was greater than 100 µM, the TGI [48] was greater than 100 µM and the TGI [21] was greater than 100 µM. The TGI [22] was greater than 100 µM, the TGI [49] was greater than 100 µM and the TGI [23] was greater than 100 µM. The TGI [24] was greater than 100 µM, the TGI [50] was greater than 100 µM and the TGI [51] was greater than 100 µM. For the same molecule, the TGI [26] was greater than 100 µM, the TGI [52] was greater than 100 µM and the TGI [53] was greater than 100 µM. The TGI [28] was greater than 100 µM, the TGI [54] was greater than 100 µM and the TGI [30] was greater than 100 µM. For the same molecule, the TGI [31] was greater than 100 µM and the TGI [55] was greater than 100 µM.

Molecule `NC1CCC(N[C@@H]2C[C@H]2c2ccccc2)CC1` (some centres not stated) has a GI50 [33] greater than 100 µM, a TGI [33] greater than 100 µM and a GI50 [1] greater than 100 µM. For the same molecule, the TGI [1] was greater than 100 µM, the GI50 [56] was greater than 100 µM and the TGI [56] was greater than 100 µM. For the same molecule, the GI50 [34] was greater than 100 µM, the TGI [34] was greater than 100 µM and the GI50 [2] was greater than 100 µM. For the same molecule, the TGI [2] was greater than 100 µM, the GI50 [3] was greater than 100 µM and the TGI [3] was greater than 100 µM. The GI50 [4] was 70.8 µM, the TGI [4] was greater than 100 µM and the GI50 [35] was greater than 100 µM. For the same molecule, the TGI [35] was greater than 100 µM, the GI50 [36] was greater than 100 µM and the TGI [36] was greater than 100 µM. It also gave a GI50 [57] of 5.47 µM, a TGI [57] greater than 100 µM and a GI50 [5] greater than 100 µM. It also gave a TGI [5] greater than 100 µM, a GI50 [6] greater than 100 µM and a TGI [6] greater than 100 µM. For the same molecule, the GI50 [7] was 15.3 µM, the TGI [7] was 52 µM and the GI50 [37] was greater than 100 µM. For the same molecule, the TGI [37] was greater than 100 µM, the GI50 [38] was greater than 100 µM and the TGI [38] was greater than 100 µM. The GI50 [8] was greater than 100 µM, the TGI [8] was greater than 100 µM and the GI50 [39] was greater than 100 µM. For the same molecule, the TGI [39] was greater than 100 µM, the GI50 [40] was greater than 100 µM and the TGI [40] was greater than 100 µM. The GI50 [41] was greater than 100 µM, the TGI [41] was greater than 100 µM and the GI50 [10] was greater than 100 µM. The TGI [10] was greater than 100 µM, the GI50 [11] was greater than 100 µM and the TGI [11] was greater than 100 µM. For the same molecule, the GI50 [42] was 23 µM, the TGI [42] was greater than 100 µM and the GI50 [58] was greater than 100 µM. It also gave a TGI [58] greater than 100 µM, a GI50 [12] greater than 100 µM and a TGI [12] greater than 100 µM. The GI50 [13] was 21.4 µM, the TGI [13] was greater than 100 µM and the GI50 [14] was 19.9 µM. The TGI [14] was greater than 100 µM, the GI50 [15] was greater than 100 µM and the TGI [15] was greater than 100 µM. It also gave a GI50 [16] greater than 100 µM, a TGI [16] greater than 100 µM and a GI50 [43] of 33.6 µM. The TGI [43] was greater than 100 µM, the GI50 [17] was 8.89 µM and the TGI [17] was greater than 100 µM. For the same molecule, the GI50 [44] was greater than 100 µM, the TGI [44] was greater than 100 µM and the GI50 [18] was 41.8 µM. For the same molecule, the TGI [18] was greater than 100 µM, the GI50 [45] was 32 µM and the TGI [45] was greater than 100 µM. It also gave a GI50 [19] of 74.4 µM, a TGI [19] greater than 100 µM and a GI50 [46] of 92.5 µM. It also gave a TGI [46] greater than 100 µM, a GI50 [47] greater than 100 µM and a TGI [47] greater than 100 µM. The GI50 [20] was 29.9 µM, the TGI [20] was greater than 100 µM and the GI50 [48] was greater than 100 µM. The TGI [48] was greater than 100 µM, the GI50 [21] was greater than 100 µM and the TGI [21] was greater than 100 µM. For the same molecule, the GI50 [59] was greater than 100 µM, the TGI [59] was greater than 100 µM and the GI50 [22] was greater than 100 µM. It also gave a TGI [22] greater than 100 µM, a GI50 [49] greater than 100 µM and a TGI [49] greater than 100 µM. For the same molecule, the GI50 [23] was 59.2 µM, the TGI [23] was greater than 100 µM and the GI50 [24] was greater than 100 µM. It also gave a TGI [24] greater than 100 µM, a GI50 [50] of 21.1 µM and a TGI [50] of 84.7 µM. It also gave a GI50 [25] of 67.4 µM, a TGI [25] greater than 100 µM and a GI50 [51] of 95.4 µM. It also gave a TGI [51] greater than 100 µM, a GI50 [26] greater than 100 µM and a TGI [26] greater than 100 µM. For the same molecule, the GI50 [52] was greater than 100 µM, the TGI [52] was greater than 100 µM and the GI50 [53] was greater than 100 µM. The TGI [53] was greater than 100 µM, the GI50 [27] was 40.1 µM and the TGI [27] was greater than 100 µM. For the same molecule, the GI50 [28] was 73.4 µM, the TGI [28] was greater than 100 µM and the GI50 [54] was 48.4 µM. The TGI [54] was greater than 100 µM, the GI50 [29] was 60 µM and the TGI [29] was greater than 100 µM. The GI50 [30] was 69.6 µM, the TGI [30] was greater than 100 µM and the GI50 [31] was greater than 100 µM. The TGI [31] was greater than 100 µM, the GI50 [32] was 82.8 µM and the TGI [32] was greater than 100 µM. The GI50 [55] was greater than 100 µM and the TGI [55] was greater than 100 µM.

Source: PubChem BioAssay (NCI)
